Assay results published in patent publication US8748497B2, “Optimized fluorocarbon emulsions for blood substitutes and other therapeutic uses” (Alliance Pharmaceutical Corp., priority 2006, dated 2014).
Like-named read-outs stand apart in the source and are kept apart here.

What was measured:
[1] = pharmacokinetics in blood after single intravenous administration of the emulsion of Ex. VI; format: in vivo, Sprague Dawley rats; conditions: for MRT last / half-life: Sprague-Dawley, rat; for MRT last: read-out: MRT(0-last); for Vd: terminal phase; for half-life: iv, read-out: T1/2 (converted)
Text: (§1) This study was designed to assess the pharmokinetics and tissue distribution of PFOB and PFDB following a single intravenous administration of the emulsion of Ex. VI at various time intervals at dose levels of 1.8 and 3.6 g PFC/k in male and female Sprague Daley rats, aged 7-9 weeks, weight between 190-267 grams. For pharmacokinetics, 160 rats were divided into 20 groups (N=4 rats/sex/dose/time interval) and for tissue distribution, 156 rats were divided into 26 groups (n=3 rats/sex/dose/time interval). The time intervals for pharmacokinetics blood sampling were 0.083, 0.5, 1, 3, 6, 12, 36, 48, 72 and 96 hours. The time intervals for tissue sampling was predose, 24 hours, 1, 2, 4, 8, 13, 17, 21, 26, 39, 52 and 72 weeks.
Six pharmacokinetic parameters were determined following a single intravenous dose of 1.8 gPFC/kg or 3.6 g PFC/kg in both the male and female rats as shown in the tables below.

[2] = tissue distribution after single intravenous administration of the emulsion of Ex. VI, GC headspace; format: in vivo, Sprague Dawley rats
Text: as §1
26 groups (N=3 rats/sex/group). Prior to euthanasia, body weights were recorded. At designated times (see below), rats were anesthetized with METOFANE® and esanguinated via the abdominal artery. Blood was collected into syringes containing EDTA and transferred into sealed plastic containers for storage at approximately −20° C. until analyzed. Resultant data were included in the determination of pharmacokinetic parameters. The following tissues were collected from each rat and placed in sealed containers and stored frozen at −20° C. Prior to freezing, blood and tissue samples were processed for analysis. PFOB and PFDB were quantified in blood and tissues using a GC headspace method validated by Oread. The method was validated in the liver and then cross validated to all other tissues, blood, and serum. The tissues collected and analyzed include heart, lungs, abdominal fat, spleen, liver, mesenteric lymph nodes, kidneys, adrenals, testes, ovaries, uterus, whole brain, eyes, skeletal muscle, femoral bone marrow, and gastrointestinal tract.
The concentration of PFOB and PFDB was determined in the tissues in both sexes at 12 time points. For the males, this was a total of 360 individual results including blood. There were 24 additional results for the female.

[3] = Phase 1 pharmacokinetics in healthy human volunteers; format: in vivo; conditions: for AUC(0-t) / half-life / Cmax: human, blood; for AUC(0-t) / half-life: intravenous; for AUC(0-t): read-out: AUC (0-336); for half-life: read-out: t1/2. 12 h (initial elimination half-life within the first 12 h post dose) (converted); for Cmax: iv, healthy volunteers
Protocol: Two randomised, controlled, double-blind, parallel group, Phase 1 studies were conducted in healthy human patients with the fluorocarbon emulsion made according to Example VI. Blood and expired air samples were analysed for PFOB and PFDB after a single intravenous dose of 1.2 or 1.8 g PFC/kg of the fluorocarbon emulsion of Example VI in healthy human volunteers to determine pharmacokinetics. Blood samples were collected up to 336 hours post-dosing.

[4] = pharmacokinetics in subjects undergoing noncardiac surgical procedures; format: in vivo, human; conditions: human, whole blood, noncardiac surgery; for clearance: read-out: CL (whole blood clearance) (converted); for Cmax: read-out: Cmax (maximum whole blood concentration); for half-life: read-out: T1/2 (elimination half-life) (converted)
Protocol: The pharmacokinetics of PFOB and PFDB were determined after the administration of the fluorocarbon emulsion of Example VI to subjects undergoing total hip replacement or spinal surgery or a variety of urologic and gynaecologic procedures including radical retropubic prostatectomy, radical hysterectomy, cystectomy and combined procedures. Human subjects in one study received either 0.9 g PFC/kg or 1.8 g PFC/kg of the fluorocarbon formulation of Example VI and those in a second study received 1.8 g PFC/kg of the fluorocarbon formulation of Example VI.

[5] = pharmacokinetics in subjects undergoing CABG surgery with hypothermic CPB; format: in vivo, human; conditions: human, whole blood, other: directly into the bypass oxygenator, 2.7 g PFC/kg
Protocol: The pharmacokinetics of PFOB and PFDB were determined after the administration of the fluorocarbon formulation taught in Example VI to human subjects undergoing coronary artery bypass grafting or CABG surgery with hypothermic cardiopulmonary bypass. In group 1 and in group 2, human subjects received the fluorocarbon emulsion (2.7 g PFC/kg) as taught in Example VI directly into the bypass oxygenator after being put on bypass but before cooling was begun. In group 4, subjects received 2.7 g PFC/kg of the fluorocarbon emulsion of Example VI directly into the bypass oxygenator either prior to aortic cannulation or after being put on bypass, but before cooling was begun.

[6] = in vivo; cited from earlier work
[7] = female rats, 1.8 g PFC/kg single iv, blood
[8] = female rats, 3.6 g PFC/kg single iv, blood
[9] = male rats, 1.8 g PFC/kg single iv, blood
[10] = male rats, 3.6 g PFC/kg single iv, blood
[11] = female rats, 1.8 g PFC/kg, 24 hours
[12] = female rats, 3.6 g PFC/kg, 24 hours
[13] = male rats, 1.8 g PFC/kg, 24 hours
[14] = 1.2 g PFC/kg, Table VII, 1.2 g PFC/kg
[15] = 1.2 g PFC/kg, Table VIII, 1.2 g PFC/kg
[16] = 1.8 g PFC/kg, Table VII, 1.8 g PFC/kg
[17] = 1.8 g PFC/kg, Table VIII, 1.8 g PFC/kg

FC(F)(F)C(F)(F)C(F)(F)C(F)(F)C(F)(F)C(F)(F)C(F)(F)C(F)(F)C(F)(F)C(F)(F)Br [PFDB, perfluorodecyl bromide] gave an MRT last ([1]; 1.8 g/kg, female rats, 1.8 g PFC/kg single iv, blood) of 4.72 days, an MRT last ([1]; 1.8 g/kg, male rats, 1.8 g PFC/kg single iv, blood) of 13.8 days and an MRT last ([1]; 3.6 g/kg, female rats, 3.6 g PFC/kg single iv, blood) of 18.3 days. The MRT last ([1]; 3.6 g/kg, male rats, 3.6 g PFC/kg single iv, blood) was 20.2 days, the “AUC(o-last)” value [1, 7] was 6.86 mg·h/g and the “AUC(o-∞)” value [1, 7] was 7.54 mg·h/g. The Cl [1, 7] was 238.76 g/h/kg, the T1/2 ([1]; female rats, 1.8 g PFC/kg single iv, blood, last 3 or 4 data points) was 199.851 days and the Vd ([1]; female rats, 1.8 g PFC/kg single iv) was 1652163 g/kg. For the same molecule, the “AUC(o-last)” value [1, 8] was 21.99 mg·h/g, the “AUC(o-∞)” value [1, 8] was 22.87 mg·h/g and the Cl [1, 8] was 157.39 g/h/kg. The Vd ([1]; female rats, 3.6 g PFC/kg single iv) was 1728719 g/kg, the half-life ([1]; female, blood, 1.8 g/kg, female rats, 1.8 g PFC/kg single iv, blood, last 3 or 4 data points) was ~200 days and the half-life ([1]; female, blood, 3.6 g/kg, female rats, 3.6 g PFC/kg single iv, blood, last 3 or 4 data points) was ~317 days. For the same molecule, the “AUC(o-last)” value [1, 9] was 6.88 mg·h/g, the “AUC(o-∞)” value [1, 9] was 10.65 mg·h/g and the Cl [1, 9] was 169.05 g/h/kg. The Vd ([1]; male rats, 1.8 g PFC/kg single iv) was 6128576 g/kg, the “AUC(o-last)” value [1, 10] was 24.67 mg·h/g and the “AUC(o-∞)” value [1, 10] was 27.62 mg·h/g. It also gave a Cl [1, 10] of 130.34 g/h/kg, a Vd ([1]; male rats, 3.6 g PFC/kg single iv) of 2359442 g/kg and a half-life ([1]; male, blood, 1.8 g/kg, male rats, 1.8 g PFC/kg single iv, blood, last 3 or 4 data points) of ~1050 days. For the same molecule, the half-life ([1]; male, blood, 3.6 g/kg, male rats, 3.6 g PFC/kg single iv, blood, last 3 or 4 data points) was ~523 days, the “concentration in the spleen and liver” value ([2]; 24 hours, males 1.8 g PFC/kg) was “above 1 mg/g” and the concentration at 24 h ([2]; Sprague-Dawley, rat, intravenous, 24 hr, all tissues, both sexes and both doses, read-out: absolute concentration in tissues) was > 1000 ng/g. The “percent of dose in liver” value [2, 11] was ~86%, the “percent of dose in spleen” value [2, 11] was “approximately 14%” and the “percent of dose in liver” value [2, 12] was “approximately 62%”. The “percent of dose in spleen” value [2, 12] was “approximately 8%”, the “concentration in the lymph nodes, spleen, liver and bone marrow” value ([2]; females 3.6 g PFC/kg) was “above 1 mg/g” and the “percent of dose in liver” value [2, 13] was ~85%. The “percent of dose in spleen” value [2, 13] was “approximately 15%”, the “percent of dose in spleen” value ([2]; male rats, 3.6 g PFC/kg) was “approximately 11%” and the “percent of dose in liver” value ([2]; male rats, 3.6 g PFC/kg, 24 hours) was ~69%. The “concentration in the spleen, liver, and bone marrow” value ([2]; males 3.6 PFC/kg) was “above 1 mg/g”, the t1/2. 12 h (initial elimination half-life within the first 12 h post dose) ([3]; Table VIII, 1.2 g PFC/kg) was 13.6 h and the AUC(0-t) [3, 14] was 6640 µg·h/mL. For the same molecule, the half-life [3, 14] was 822 ± 216 min, the AUC(0-t) [3, 15] was 4630 µg·h/mL and the half-life [3, 15] was 441 min. The AUC(0-t) [3, 16] was 16300 µg·h/mL, the half-life [3, 16] was 1120 min and the AUC(0-t) [3, 17] was 11200 µg·h/mL. It also gave a half-life [3, 17] of 756 min, a Cmax ([3]; 1.2 g PFC/kg, Table VII, 1.2 g PFC/kg single iv) of 540 ± 125 µg/mL and a Cmax ([3]; 1.2 g PFC/kg, Table VIII, 1.2 g PFC/kg single iv) of 670 ± 420 µg/mL. For the same molecule, the Cmax ([3]; 1.8 g PFC/kg, Table VII, 1.8 g PFC/kg single iv) was 978 ± 499 µg/mL, the Cmax ([3]; 1.8 g PFC/kg, Table VIII, 1.8 g PFC/kg single iv) was 884 ± 196 µg/mL and the AUC(0-inf) ([4]; 0.9 g PFC/kg) was 736 ± 483 µg·h/mL. The clearance ([4]; 0.9 g PFC/kg) was 0.973 mL/min/kg, the Cmax ([4]; 0.9 g PFC/kg) was 284 ± 92.7 µg/mL and the half-life ([4]; 0.9 g PFC/kg) was 164 ± 79.2 min. The AUC(0-inf) ([4]; 1.8 g PFC/kg) was 2950 µg·h/mL, the clearance ([4]; 1.8 g PFC/kg) was 0.595 mL/min/kg and the Cmax ([4]; 1.8 g PFC/kg) was 620 ± 158 µg/mL. The half-life ([4]; 1.8 g PFC/kg) was 334 ± 289 min, the AUC(0-inf) [5] was 16200 µg·h/mL and the clearance ([5]; read-out: CL (whole blood clearance) (converted)) was 0.113 mL/min/kg. The Cmax ([5]; read-out: Cmax (maximum whole blood concentration)) was 1030 µg/mL, the half-life ([5]; read-out: T1/2 (elimination half-life) (converted)) was 648 ± 268 min and the “half-life in the RES” value [6] was 23 days.
